Data taken from PubChem BioAssay (NCI).
Several values for one entry are separate records, joined by “and”; a condition that tells them apart may be missing. Equal entries are not always repeated.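 In this assay, cells in 96-well plates receive the compound at five concentrations for 48 hours. Endpoints are linearly interpolated between the surrounding concentrations. GI50: concentration for 50% inhibition of growth. TGI is the concentration that stops growth completely.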

Tests used:
Assay in all cases: DTP human tumour cell line panel, 48 h
[1] = system: SF-539 CNS
[2] = system: KM12 colon
[3] = system: HCT-15 colon
[4] = system: MCF7 breast
[5] = system: MALME-3M melanoma
[6] = system: SW-620 colon
[7] = system: MOLT-4 leukemia
[8] = system: COLO 205 colon
[9] = system: OVCAR-5 ovarian
[10] = system: HCC-2998 colon

SMILES	GI50 [1]	TGI [1]	GI50 [2]	TGI [2]	GI50 [3]	TGI [3]	GI50 [4]	TGI [4]	GI50 [5]	TGI [5]	GI50 [6]	TGI [6]	GI50 [7]	TGI [7]	GI50 [8]	TGI [8]	GI50 [9]	TGI [9]	GI50 [10]	TGI [10]
CCCCCCCCCCCCCCNC(=O)Nc1ccc(Cl)c(Cl)c1	4.07 µM	> 100 µM	3 µM	8.44 µM	3.21 µM	> 100 µM	2.86 µM	> 36.1 µM	1.39 µM	4.59 µM	3.18 µM	> 100 µM	1.6 µM	> 25.1 µM	1.81 µM	3.48 µM	3.69 µM	> 100 µM	2.85 µM	> 100 µM
O=C(O)CN(CCN(CC(=O)O)CC(=O)O)CC(=O)O.[Mn+2]	> 100 µM	> 100 µM	> 100 µM	> 100 µM	> 100 µM	> 100 µM	> 100 µM	> 100 µM	> 100 µM	> 100 µM	> 100 µM	> 100 µM	> 100 µM	> 100 µM	> 100 µM	> 100 µM	> 100 µM	> 100 µM	> 100 µM	> 100 µM
COCCOC1=C(Cl)C(=O)c2ccccc2C1=O	2.52 µM	5.79 µM	2.11 µM	4.23 µM	2.88 µM	9.65 µM	3.06 µM	14.7 µM	3.08 µM	13.4 µM	1.7 µM	3.32 µM	1.81 µM	42 µM	3.63 µM	12.2 µM	3.22 µM	9.52 µM	4.23 µM	15 µM
COc1ccccc1Oc1nccc(-c2c(-c3ccc(F)cc3)ncn2C2CCNCC2)n1	> 25 µM	> 25 µM	> 25 µM	> 25 µM	> 25 µM	> 25 µM	16 µM	> 25 µM	> 25 µM	> 25 µM	> 25 µM	> 25 µM	> 16.3 µM	> 25 µM	7.37 µM	> 19.9 µM	> 25 µM	> 25 µM	11.8 µM	> 25 µM
COc1cc(OC)c(OC)cc1/C=C/c1nc2ccccc2s1	–	> 100 µM	–	> 100 µM	–	> 100 µM	–	> 100 µM	–	> 100 µM	–	> 100 µM	–	> 100 µM	–	> 100 µM	–	> 100 µM	–	> 100 µM
C(=Nc1nc(SCc2ccccc2)nc2[nH]ncc12)c1cccs1	24.8 µM	> 100 µM	36.7 µM	> 100 µM	85.4 µM	> 100 µM	40.4 µM	> 100 µM	42.9 µM	> 100 µM	47.2 µM	> 100 µM	23.6 µM	85.9 µM	22.2 µM	76.4 µM	> 100 µM	> 100 µM	37.7 µM	> 100 µM
Cc1noc(NC(=O)Nc2ccccc2F)c1C#N	–	> 100 µM	–	> 100 µM	–	> 100 µM	–	> 35.6 µM	–	> 51.9 µM	–	> 100 µM	–	> 100 µM	–	> 100 µM	–	> 45.8 µM	–	3.8 µM
OCCCCC#Cc1ccccc1C#Cc1cccc(C(F)(F)F)c1	20.1 µM	38 µM	16.2 µM	31.3 µM	16.3 µM	30.8 µM	21.2 µM	42.7 µM	26 µM	48.5 µM	16.9 µM	37 µM	21.8 µM	59.9 µM	19.2 µM	36.3 µM	17.5 µM	37.2 µM	17.7 µM	32.3 µM
CC(=O)O[C@H]1CC2C(C3CC[C@H](C(C)CCC(=O)O)[C@]31C)[C@H](OC(C)=O)C[C@@H]1CC3(CC[C@]21C)OOC1(CCC(C)CC1)OO3 (stereo partly drawn)	8.15 µM and 1.94 µM	20.6 µM and 3.86 µM	5.73 µM and 2.31 µM	19.4 µM and 6.98 µM	–	13.9 µM and 7.4 µM	–	30.4 µM and 38.1 µM	12.5 µM and 2.73 µM	28.3 µM and 8.04 µM	7.42 µM and 3.55 µM	22.2 µM and 16 µM	–	10.6 µM and 3.79 µM	–	8.21 µM and 4.4 µM	10.6 µM and 4.54 µM	22.7 µM and 16 µM	8.43 µM and 2.73 µM	21.3 µM and 6.48 µM
N#CC(C#N)=C/C=C(\Sc1ccc(Cl)cc1)c1ccc(F)cc1	0.251 µM	0.872 µM	0.87 µM	3.73 µM	1.49 µM	> 33.1 µM	0.982 µM	> 100 µM	1.6 µM	6.28 µM	0.0532 µM	–	0.281 µM	–	4.11 µM	> 38.5 µM	1.37 µM	15.3 µM	2.87 µM	6.17 µM
NC(N)=NCCCC(NCc1c2ccccc2nc2ccccc12)C(=O)O (stereo not drawn)	–	> 100 µM	–	> 100 µM	–	> 100 µM	–	> 100 µM	–	> 100 µM	–	> 100 µM	–	45 µM	–	> 100 µM	–	> 100 µM	–	> 100 µM
CC(=O)NC1C(O[C@H]2C[C@H]3[C@@H]4CC=C5C[C@@H](O)CC[C@]5(C)[C@H]4CC[C@]3(C)[C@H]2[C@H](C)C(=O)CCC(C)C)OCC(O)C1O (stereo partly drawn)	0.568 µM	2.33 µM	6.27 µM	> 42.5 µM	4.38 µM	10.5 µM	2.44 µM	10.4 µM	2.33 µM	9.78 µM	3.21 µM	9.78 µM	1.22 µM	3.11 µM	2.13 µM	8.75 µM	6.34 µM	20.1 µM	6.46 µM	14.6 µM
O=C(c1cccs1)c1c(C(F)(F)F)n([O-])c2cc(Cl)c(Cl)cc2[n+]1=O	0.719 µM	1.94 µM	0.517 µM	1.08 µM	0.286 µM	0.808 µM	0.0762 µM	1.17 µM	1.23 µM	2.65 µM	0.0876 µM	0.865 µM	–	> 100 µM	2 µM	4.13 µM	1.77 µM	3.16 µM	1.5 µM	2.86 µM
CC(C)[C@@H]1CC[C@]2(CO2)[C@@H]2C(=O)OCC(C(=O)O)=C[C@H]21	0.353 µM	> 34.6 µM	0.344 µM	4.08 µM	0.378 µM	> 100 µM	0.824 µM	> 100 µM	0.305 µM	5.31 µM	0.334 µM	> 100 µM	0.62 µM	3.96 µM	0.657 µM	> 57.7 µM	0.54 µM	> 100 µM	0.459 µM	> 52.3 µM
